# Measurements from patent US20220112479A1, “COMPOUNDS STABILIZING AMYLASES IN LIQUIDS” (BASF SE, priority 2018, published 2022).
# Legend:
# Format in all cases: biochemical
# [1] = tested on: Amy3=Stainzyme Plus L (12L); assay: amylase storage stability in liquid formulation (pNP release from Ethyliden-blocked-pNPG7); details: base formulation II., 1.5 wt % component (a), storage at 37° C.
# Method: (§1) The storage stability of amylase was assessed at 37° C.
# Base test formulations were manufactured by making base formulations I to V by mixing the components according to Table 1.
# Amylases used: Amy1=Stainzyme, Amy2=Amplify, Amy3=Stainzyme Plus L (12L)
# The respective component (a) or comparative compound was added, if applicable, to the respective base formulation in amounts as indicated in Table 1.
# The amount of amylase as provided in Table 1 refers to active protein.
# Water was added to accomplish the balance to 100.
# (§2) Amylase activity at certain points in time as indicated in Table 2 was measured quantitatively by the release of the chromophore para-nitrophenol (pNP) from the substrate (Ethyliden-blocked-pNPG7, Roche Applied Science 10880078103). The alpha-amylase degrades the substrate into smaller molecules and α-glucosidase (Roche Applied Science 11626329103), which is present in excess compared to the amylase, process these smaller products until pNP is released; the release of pNP, measured via an increase of absorption at 405 nm, is directly proportional to the amylase activity of the sample. Amylase standard: Termamyl 120 L (Sigma 3403).
# (§3) The amylolytic activity values provided were calculated referring to the value determined in the reference formulation at the time 0.
# (§4) The nomenclature of formulations is as follows: the Roman number before the full stop characterizes the base formulation, the Arabian number the type of compound (A.# compound according to invention (component (a)); B.# comparative compound).
# Savinase Ultra 16.0L = molecular target: T1, Savinase Ultra 16.0L (Lederbergia lenta, UniProt P29600); assay: protease storage stability in liquid formulation (Suc-AAPF-pNA substrate); details: storage at 37° C.
# T1 construct: purchased Sigma-Aldrich
# T1 sequence (P29600 1-269): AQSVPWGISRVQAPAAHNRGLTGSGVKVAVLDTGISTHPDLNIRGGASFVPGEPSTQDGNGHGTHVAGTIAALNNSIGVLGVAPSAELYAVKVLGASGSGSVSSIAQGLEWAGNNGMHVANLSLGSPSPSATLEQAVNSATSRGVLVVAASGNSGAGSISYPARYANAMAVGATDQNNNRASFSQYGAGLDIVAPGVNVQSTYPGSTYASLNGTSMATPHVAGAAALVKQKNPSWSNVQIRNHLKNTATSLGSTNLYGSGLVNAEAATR
# Summary of the method: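 Savinase in liquid base formulations containing test salt, comparative compound or diethylene glycol; amounts given as active protein. Residual activity at set storage times measured with Suc-AAPF-pNA via pNA release at OD405, 20 °C. Activity expressed relative to reference formulation at time 0.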
# Amylase = assay: amylase storage stability in liquid laundry formulation (pNP release from Ethyliden-blocked-pNPG7); design: key: % of activity in reference formulation at time 0; details: 2.5 wt % component (a), storage at 37° C.
# Method: as §1
# Base test formulations were manufactured by making base formulations VI to IX by mixing the components according to Table 4.
# as §2, with “Table 5” for “Table 2”
# as §3, §4
smiles,measurement,setting,value
"CCCOC(=O)CC(O)(CC(=O)OCCC)C(=O)OCCC [A.2, Tripropylcitrate]","amylase activity, referring to reference formulation at time 0",[1]; 3 d,100
same,"amylase activity, referring to reference formulation at time 0",[1]; 7 d,97
same,"amylase activity, referring to reference formulation at time 0",[1]; 14 d,93
same,"amylase activity, referring to reference formulation at time 0",[1]; 21 d,87
same,"amylase activity, referring to reference formulation at time 0",[1]; 28 d,83
same,"amylase activity, referring to reference formulation at time 0",[1]; 42 d,69
same,"amylase activity, referring to reference formulation at time 0",[1]; T0,102
same,"protease activity, referring to reference formulation at time 0","Savinase Ultra 16.0L; base formulation I., 1.5 wt % component (a), 3 d",100
same,"protease activity, referring to reference formulation at time 0","Savinase Ultra 16.0L; base formulation I., 1.5 wt % component (a), 7 d",95
same,"protease activity, referring to reference formulation at time 0","Savinase Ultra 16.0L; base formulation I., 1.5 wt % component (a), 14 d",90
same,"protease activity, referring to reference formulation at time 0","Savinase Ultra 16.0L; base formulation I., 1.5 wt % component (a), 21 d",85
same,"protease activity, referring to reference formulation at time 0","Savinase Ultra 16.0L; base formulation I., 1.5 wt % component (a), 28 d",81
same,"protease activity, referring to reference formulation at time 0","Savinase Ultra 16.0L; base formulation I., 1.5 wt % component (a), 42 d",71
same,"protease activity, referring to reference formulation at time 0","Savinase Ultra 16.0L; base formulation I., 1.5 wt % component (a), T0",101
same,"protease activity, referring to reference formulation at time 0","Savinase Ultra 16.0L; base formulation II., 1.5 wt % component (a), 3 d",100
same,"protease activity, referring to reference formulation at time 0","Savinase Ultra 16.0L; base formulation II., 1.5 wt % component (a), 7 d",96
same,"protease activity, referring to reference formulation at time 0","Savinase Ultra 16.0L; base formulation II., 1.5 wt % component (a), 14 d",91
same,"protease activity, referring to reference formulation at time 0","Savinase Ultra 16.0L; base formulation II., 1.5 wt % component (a), 21 d",87
same,"protease activity, referring to reference formulation at time 0","Savinase Ultra 16.0L; base formulation II., 1.5 wt % component (a), 28 d",83
same,"protease activity, referring to reference formulation at time 0","Savinase Ultra 16.0L; base formulation II., 1.5 wt % component (a), 42 d",72
same,"protease activity, referring to reference formulation at time 0","Savinase Ultra 16.0L; base formulation II., 1.5 wt % component (a), T0",101
same,"protease activity, referring to reference formulation at time 0","Savinase Ultra 16.0L; base formulation III., 1.5 wt % component (a), 3 d",100
same,"protease activity, referring to reference formulation at time 0","Savinase Ultra 16.0L; base formulation III., 1.5 wt % component (a), 7 d",95
same,"protease activity, referring to reference formulation at time 0","Savinase Ultra 16.0L; base formulation III., 1.5 wt % component (a), 14 d",93
same,"protease activity, referring to reference formulation at time 0","Savinase Ultra 16.0L; base formulation III., 1.5 wt % component (a), 21 d",88
same,"protease activity, referring to reference formulation at time 0","Savinase Ultra 16.0L; base formulation III., 1.5 wt % component (a), 28 d",83
same,"protease activity, referring to reference formulation at time 0","Savinase Ultra 16.0L; base formulation III., 1.5 wt % component (a), 42 d",73
same,"protease activity, referring to reference formulation at time 0","Savinase Ultra 16.0L; base formulation III., 1.5 wt % component (a), T0",101
same,"protease activity, referring to reference formulation at time 0","Savinase Ultra 16.0L; base formulation V., 2.0 wt % component (a), 3 d",95
same,"protease activity, referring to reference formulation at time 0","Savinase Ultra 16.0L; base formulation V., 2.0 wt % component (a), 7 d",92
same,"protease activity, referring to reference formulation at time 0","Savinase Ultra 16.0L; base formulation V., 2.0 wt % component (a), 14 d",87
same,"protease activity, referring to reference formulation at time 0","Savinase Ultra 16.0L; base formulation V., 2.0 wt % component (a), 21 d",82
same,"protease activity, referring to reference formulation at time 0","Savinase Ultra 16.0L; base formulation V., 2.0 wt % component (a), 28 d",77
same,"protease activity, referring to reference formulation at time 0","Savinase Ultra 16.0L; base formulation V., 2.0 wt % component (a), 42 d",70
same,"protease activity, referring to reference formulation at time 0","Savinase Ultra 16.0L; base formulation V., 2.0 wt % component (a), T0",100
same,"amylase activity, referring to reference formulation at time 0","Amylase; laundry base formulation IX. (2.5 DTPA), 3 d",93
same,"amylase activity, referring to reference formulation at time 0","Amylase; laundry base formulation IX. (2.5 DTPA), 7 d",85
same,"amylase activity, referring to reference formulation at time 0","Amylase; laundry base formulation IX. (2.5 DTPA), 14 d",81
same,"amylase activity, referring to reference formulation at time 0","Amylase; laundry base formulation IX. (2.5 DTPA), 21 d",72
same,"amylase activity, referring to reference formulation at time 0","Amylase; laundry base formulation IX. (2.5 DTPA), 28 d",63
same,"amylase activity, referring to reference formulation at time 0","Amylase; laundry base formulation IX. (2.5 DTPA), T0",100
same,"amylase activity, referring to reference formulation at time 0","Amylase; laundry base formulation VI. (2.0 EDTA), 3 d",94
same,"amylase activity, referring to reference formulation at time 0","Amylase; laundry base formulation VI. (2.0 EDTA), 7 d",86
same,"amylase activity, referring to reference formulation at time 0","Amylase; laundry base formulation VI. (2.0 EDTA), 14 d",80
same,"amylase activity, referring to reference formulation at time 0","Amylase; laundry base formulation VI. (2.0 EDTA), 21 d",74
same,"amylase activity, referring to reference formulation at time 0","Amylase; laundry base formulation VI. (2.0 EDTA), 28 d",65
same,"amylase activity, referring to reference formulation at time 0","Amylase; laundry base formulation VI. (2.0 EDTA), T0",101
same,"amylase activity, referring to reference formulation at time 0","Amylase; laundry base formulation VIII. (2.5 DTPA, no Savinase), 3 d",94
same,"amylase activity, referring to reference formulation at time 0","Amylase; laundry base formulation VIII. (2.5 DTPA, no Savinase), 7 d",87
same,"amylase activity, referring to reference formulation at time 0","Amylase; laundry base formulation VIII. (2.5 DTPA, no Savinase), 14 d",83
same,"amylase activity, referring to reference formulation at time 0","Amylase; laundry base formulation VIII. (2.5 DTPA, no Savinase), 21 d",77
same,"amylase activity, referring to reference formulation at time 0","Amylase; laundry base formulation VIII. (2.5 DTPA, no Savinase), 28 d",69
same,"amylase activity, referring to reference formulation at time 0","Amylase; laundry base formulation VIII. (2.5 DTPA, no Savinase), T0",99
